Values quoted from earlier work as cited in article PMC7587962, “Evaluation of Cytotoxicity and α-Glucosidase Inhibitory Activity of Amide and Polyamino-Derivatives of Lupane Triterpenoids” (Molecules, 2020).

Columns and labels:
COLO 205 = tested on: COLO 205; parameters: method as in PMID 25405285; conditions: standard drugs used by NCI as control; cited from earlier work
CCRF-CEM = tested on: CCRF-CEM; parameters: method as in PMID 25405285; conditions: standard drugs used by NCI as control; cited from earlier work
MALME-3M = tested on: MALME-3M; parameters: method as in PMID 25405285; conditions: standard drugs used by NCI as control; cited from earlier work
NCI/ADR-RES = tested on: NCI/ADR-RES; parameters: method as in PMID 25405285; conditions: standard drugs used by NCI as control; cited from earlier work
SN12C = tested on: SN12C; parameters: method as in PMID 25405285; conditions: standard drugs used by NCI as control; cited from earlier work
HCT-116 = tested on: HCT-116; parameters: method as in PMID 25405285; conditions: standard drugs used by NCI as control; cited from earlier work
MCF7 = tested on: MCF7; parameters: method as in PMID 25405285; conditions: standard drugs used by NCI as control; cited from earlier work
A498 = tested on: A498; parameters: method as in PMID 25405285; conditions: standard drugs used by NCI as control; cited from earlier work
SK-OV-3 = tested on: SK-OV-3; parameters: method as in PMID 25405285; conditions: standard drugs used by NCI as control; cited from earlier work
SNB-75 = tested on: SNB-75; parameters: method as in PMID 25405285; conditions: standard drugs used by NCI as control; cited from earlier work
SK-MEL-2 = tested on: SK-MEL-2; parameters: method as in PMID 25405285; conditions: standard drugs used by NCI as control; cited from earlier work
NCI-H226 = tested on: NCI-H226; parameters: method as in PMID 25405285; conditions: standard drugs used by NCI as control; cited from earlier work
HL-60(TB) = conditions: standard drugs used by NCI as control; cited from earlier work
MDA-MB-231/ATCC = tested on: MDA-MB-231/ATCC; parameters: method as in PMID 25405285; conditions: MDA-MB-31/ATCC; standard drugs used by NCI as control; cited from earlier work
UACC-257 = tested on: UACC-257; parameters: method as in PMID 25405285; conditions: standard drugs used by NCI as control; cited from earlier work
BT-549 = tested on: BT-549; parameters: method as in PMID 25405285; conditions: standard drugs used by NCI as control; cited from earlier work
ACHN = tested on: ACHN; parameters: method as in PMID 25405285; conditions: standard drugs used by NCI as control; cited from earlier work
MOLT-4 = tested on: MOLT-4; parameters: method as in PMID 25405285; conditions: standard drugs used by NCI as control; cited from earlier work
UO-31 = tested on: UO-31; parameters: method as in PMID 25405285; conditions: standard drugs used by NCI as control; cited from earlier work
SK-MEL-28 = tested on: SK-MEL-28; parameters: method as in PMID 25405285; conditions: standard drugs used by NCI as control; cited from earlier work
OVCAR-3 = tested on: OVCAR-3; parameters: method as in PMID 25405285; conditions: standard drugs used by NCI as control; cited from earlier work
786-0 = tested on: 786-0; parameters: method as in PMID 25405285; conditions: standard drugs used by NCI as control; cited from earlier work
A549/ATCC = tested on: A549/ATCC; parameters: method as in PMID 25405285; conditions: standard drugs used by NCI as control; cited from earlier work
DU-145 = tested on: DU-145; parameters: method as in PMID 25405285; conditions: standard drugs used by NCI as control; cited from earlier work
NCI-H23 = tested on: NCI-H23; parameters: method as in PMID 25405285; conditions: standard drugs used by NCI as control; cited from earlier work
RXF 393 = tested on: RXF 393; parameters: method as in PMID 25405285; conditions: standard drugs used by NCI as control; cited from earlier work
HOP-62 = tested on: HOP-62; parameters: method as in PMID 25405285; conditions: standard drugs used by NCI as control; cited from earlier work
SF-268 = tested on: SF-268; parameters: method as in PMID 25405285; conditions: standard drugs used by NCI as control; cited from earlier work
NCI-H522 = tested on: NCI-H522; parameters: method as in PMID 25405285; conditions: standard drugs used by NCI as control; cited from earlier work
LOX IMVI = tested on: LOX IMVI; parameters: method as in PMID 25405285; conditions: standard drugs used by NCI as control; cited from earlier work
NCI-H460 = tested on: NCI-H460; parameters: method as in PMID 25405285; conditions: standard drugs used by NCI as control; cited from earlier work
MDA-MB-435 = tested on: MDA-MB-435; parameters: method as in PMID 25405285; conditions: standard drugs used by NCI as control; cited from earlier work
HOP-92 = tested on: HOP-92; parameters: method as in PMID 25405285; conditions: standard drugs used by NCI as control; cited from earlier work
RPMI-8226 = tested on: RPMI-8226; parameters: method as in PMID 25405285; conditions: standard drugs used by NCI as control; cited from earlier work
T-47D = tested on: T-47D; parameters: method as in PMID 25405285; conditions: standard drugs used by NCI as control; cited from earlier work
TK-10 = tested on: TK-10; parameters: method as in PMID 25405285; conditions: standard drugs used by NCI as control; cited from earlier work
SF-539 = tested on: SF-539; parameters: method as in PMID 25405285; conditions: standard drugs used by NCI as control; cited from earlier work
SNB-19 = tested on: SNB-19; parameters: method as in PMID 25405285; conditions: standard drugs used by NCI as control; cited from earlier work
KM12 = tested on: KM12; parameters: method as in PMID 25405285; conditions: standard drugs used by NCI as control; cited from earlier work
U251 = tested on: U251; parameters: method as in PMID 25405285; conditions: standard drugs used by NCI as control; cited from earlier work
OVCAR-8 = tested on: OVCAR-8; parameters: method as in PMID 25405285; conditions: standard drugs used by NCI as control; cited from earlier work
UACC-62 = tested on: UACC-62; parameters: method as in PMID 25405285; conditions: standard drugs used by NCI as control; cited from earlier work
HS 578T = tested on: HS 578T; parameters: method as in PMID 25405285; conditions: standard drugs used by NCI as control; cited from earlier work
SW-620 = tested on: SW-620; parameters: method as in PMID 25405285; conditions: standard drugs used by NCI as control; cited from earlier work
HCT-15 = tested on: HCT-15; parameters: method as in PMID 25405285; conditions: standard drugs used by NCI as control; cited from earlier work
HCC-2998 = tested on: HCC-2998; parameters: method as in PMID 25405285; conditions: standard drugs used by NCI as control; cited from earlier work
K-562 = tested on: K-562; parameters: method as in PMID 25405285; conditions: standard drugs used by NCI as control; cited from earlier work
PC-3 = tested on: PC-3; parameters: method as in PMID 25405285; conditions: standard drugs used by NCI as control; cited from earlier work
M14 = tested on: M14; parameters: method as in PMID 25405285; conditions: standard drugs used by NCI as control; cited from earlier work
OVCAR-5 = tested on: OVCAR-5; parameters: method as in PMID 25405285; conditions: standard drugs used by NCI as control; cited from earlier work
CAKI-1 = tested on: CAKI-1; parameters: method as in PMID 25405285; conditions: standard drugs used by NCI as control; cited from earlier work
OVCAR-4 = tested on: OVCAR-4; parameters: method as in PMID 25405285; conditions: standard drugs used by NCI as control; cited from earlier work
IGROV1 = tested on: IGROV1; parameters: method as in PMID 25405285; conditions: standard drugs used by NCI as control; cited from earlier work
SK-MEL-5 = tested on: SK-MEL-5; parameters: method as in PMID 25405285; conditions: standard drugs used by NCI as control; cited from earlier work
HT29 = tested on: HT29; parameters: method as in PMID 25405285; conditions: standard drugs used by NCI as control; cited from earlier work

O=c1[nH]cc(F)c(=O)[nH]1 [Compound 5-FU, 5-fluorouracil]
GI50 (COLO 205): 0.15 µM
GI50 (CCRF-CEM): 9.97 µM
GI50 (MALME-3M): 0.05 µM
GI50 (NCI/ADR-RES): 0.31 µM
GI50 (SN12C): 0.49 µM
GI50 (HCT-116): 0.22 µM
GI50 (MCF7): 0.07 µM
GI50 (A498): 0.35 µM
GI50 (SK-OV-3): 21.8 µM
GI50 (SNB-75): 78.7 µM
GI50 (SK-MEL-2): 56.7 µM
GI50 (NCI-H226): 54.7 µM
GI50 (HL-60(TB)): 2.3 µM
GI50 (MDA-MB-231/ATCC): 6.6 µM
GI50 (UACC-257): 3.55 µM
GI50 (BT-549): 10.6 µM
GI50 (ACHN): 0.27 µM
GI50 (MOLT-4): 0.35 µM
GI50 (UO-31): 1.42 µM
GI50 (SK-MEL-28): 1.03 µM
GI50 (OVCAR-3): 0.01 µM
GI50 (786-0): 0.72 µM
GI50 (A549/ATCC): 0.18 µM
GI50 (DU-145): 0.36 µM
GI50 (NCI-H23): 0.33 µM
GI50 (RXF 393): 2.61 µM
GI50 (HOP-62): 0.39 µM
GI50 (SF-268): 1.62 µM
GI50 (NCI-H522): 7.27 µM
GI50 (LOX IMVI): 0.24 µM
GI50 (NCI-H460): 0.05 µM
GI50 (MDA-MB-435): 0.07 µM
GI50 (HOP-92): 77.9 µM
GI50 (RPMI-8226): 0.04 µM
GI50 (T-47D): 8.12 µM
GI50 (TK-10): 1.12 µM
GI50 (SF-539): 0.06 µM
GI50 (SNB-19): 3.81 µM
GI50 (KM12): 0.21 µM
GI50 (U251): 0.92 µM
GI50 (OVCAR-8): 1.74 µM
GI50 (UACC-62): 0.52 µM
GI50 (HS 578T): 9.77 µM
GI50 (SW-620): 0.92 µM
GI50 (HCT-15): 0.11 µM
GI50 (HCC-2998): 0.05 µM
GI50 (K-562): 3.58 µM
GI50 (PC-3): 2.36 µM
GI50 (M14): 0.98 µM
GI50 (OVCAR-5): 10.9 µM
GI50 (CAKI-1): 0.07 µM
GI50 (OVCAR-4): 4.43 µM
GI50 (IGROV1): 1.22 µM
GI50 (SK-MEL-5): 0.46 µM
GI50 (HT29): 0.17 µM
